The values that follow come from patent publication US4261921A, “Process for preparation of a crystalline insecticidal pyrethroid enantiomer pair” (priority 1979, dated 1981).

In assay [1] the test system is cabbage looper (Trichoplusia ni). Briefly: Topical Application Test, cabbage looper (CL). Format: in vivo. Here is the method: (§1) The compound of this invention was tested for insecticidal activity by applying to the insect appropriate amounts of a toxicant solution containing 5 mg/ml of toxicant in acetone. The tests were read twenty-four hours after application of the toxicant solution and the percent kill determined. The commercial insecticide permethrin, 3-phenoxybenzyl (+) cis-trans-3-(2,2-dichlorovinyl)-2,2-dimethylcyclopropanecarboxylate, was used as the standard for comparison. Relative potency, based on a value of 1.0 for permethrin, was determined by comparing the LD50 for the test compound with that for the standard. The insects employed include southern armyworm (Spodoptera eridania [Cram.]), cabbage looper (Trichoplusia ni [Hubner]), Mexican bean beetle (Epilachna varivestis Muls.), beet armyworm (Spodoptera exigua [Hubner]), milkweed bug (Oncopeltus faciatus [Dallas]), tobacco budworm (Heliothis virescens [Fabricius]), and corn earworm (Heliothis zea [Boddle]).

Assay [2] deals with milkweed bug (Oncopeltus fasciatus). Kind of assay: Topical Application Test, milkweed bug (MWB). The class given is in vivo. The procedure: as §1
Assay [3] has as its system southern armyworm (Spodoptera eridania). Kind of assay: Initial Contact (Foliar) Activity, southern armyworm (SAW). The class given is in vivo. The procedure: (§2) The compound of the invention was dissolved in a solution of 90% water, 9.75% acetone; and 0.25% octylphenoxypolyethoxyethanol to give a solution having 512 ppm (w/w) active ingredient. Aliquots of this solution were diluted with an appropriate amount of water to provide solutions containing various concentrations of active ingredient. Test organisms and techniques were as follows: The activity against Mexican bean beetle (Epilachna varivestis Muls.) and southern armyworm (Spodoptera eridania [Cram.]) was evaluated by spraying the leaves of pinto bean plants with the test solution and infesting with 3rd instar larvae after the foliage had dried. The activity against the pea aphid (Acyrthosiphon pisum [Harris]) was evaluated on broad bean plants whose leaves were sprayed before infestation with adult aphids. To prevent escape of the insects from the test site, the complete test plant or the incised leaves were placed in capped paper cups. The tests were transferred to a holding room for an exposure period of 48 hours. At the end of this time the dead and living insects were counted, the LD50 was calculated, and the potency relative to the commercial insecticide permethrin, 3-phenoxybenzyl (+) cis,trans-3-(2,2-dichloroethenyl)-2,2-dimethylcyclopropanecarboxylate determined.

The test system of assay [4] is tobacco budworm (Heliothis virescens). Briefly: Topical Application Test, tobacco budworm (TBW). Format: in vivo. The settings on record: LD50 compared with permethrin = 1.0. The procedure:
as §1

For assay [5], the system named is corn earworm (Heliothis zea). Briefly: Topical Application Test, corn earworm (CEW). The class given is in vivo. The procedure: as §1
A further assay relates to insects. Kind of assay: Topical Application Test, all insects, comparison with permethrin in words. The class given is in vivo. The settings on record: topical tests, 24 h. The procedure:
as §1

In assay [6] the test system is southern armyworm (Spodoptera eridania). Kind of assay: Topical Application Test, southern armyworm (SAW). Format: in vivo. The settings on record: LD50 compared with permethrin = 1.0. Here is the method:
as §1

Assay [7] relates to pea aphid (Acyrthosiphon pisum). Briefly: Initial Contact (Foliar) Activity, pea aphid (PA). Format: in vivo. The procedure:
as §2

Assay [8] deals with beet armyworm (Spodoptera exigua). Kind of assay: Topical Application Test, beet armyworm (BAW). Format: in vivo. Here is the method:
as §1

For assay [9], the system named is Mexican bean beetle (Epilachna varivestis). Kind of assay: Topical Application Test, Mexican bean beetle (MBB). The class given is in vivo. The procedure: as §1
The test system is the same in assay [10]. Briefly: Initial Contact (Foliar) Activity, Mexican bean beetle (MBB). Format: in vivo. The procedure:
as §2

For assay [11] the following is noted: U.S. Pat. No. 4,136,195; cited from earlier work.
[12] abbreviates: LD50 compared with permethrin = 1.0.

As for `CC1(C)[C@H](C(=O)O[C@H](C#N)c2cccc(Oc3ccccc3)c2)[C@@H]1C=C(Cl)Cl` (relative stereo) [compound of the invention, racemic mixture of (S)-(cyano)(3-phenoxyphenyl)methyl (1R,cis)-3-(2,2-dichloroethenyl)-2,2-dimethylcyclopropanecarboxylate and (R)-(cyano)(3-phenoxyphenyl)methyl (1S,cis)-3-(2,2-dichloroethenyl)-2,2-dimethylcyclopropanecarboxylate], the “Relative Potency” value is reported as 9.0 in [1] (setting [12]); 37.6 in assay [2] (setting [12]); 9.8-16.1 in assay [3] (southern armyworm, 48 h, relative to permethrin); 4.2-6.1 in assay [4]; 2.5 in [5] (setting [12]); 1.0-1.5 in assay [6]. The “Relative Potency” value in assay [7] (pea aphid, 48 h, relative to permethrin) is recorded as 2.5-9.8; in assay [8] (setting [12]), 5.1; in assay [9] (setting [12]), 7.2; in assay [10] (Mexican bean beetle, 48 h, relative to permethrin), 5.3-8.8. Further, the LD50 came out at 14.9 ng/insect in [1] (read 24 h after application); 16.4 ng/insect in assay [2] (read 24 h after application); 110.9 ng/insect in [5] (read 24 h after application); 218.8 ng/insect in assay [8] (read 24 h after application); 2.03 ng/insect in assay [9] (read 24 h after application). The LC50 entry is given as “.22-.38 parts per million” in assay [3] (southern armyworm 3rd instar larvae, pinto bean, 48 h exposure); 1.39-21.15 parts per million in [7] (pea aphid adults, broad bean, 48 h exposure); 1.62-1.86 parts per million in assay [10] (Mexican bean beetle 3rd instar larvae, pinto bean, 48 h exposure). Besides, in the assay on insects, the “insecticidal activity compared with permethrin” value is listed as “substantially more active than permethrin”.

`CC1(C)[C@H](C(=O)O[C@H](C#N)c2cccc(Oc3ccccc3)c2)[C@@H]1C=C(Cl)Cl` [1R,cis-α-S isomer, (S)-(cyano)(3-phenoxyphenyl)methyl (1R,cis)-3-(2,2-dichloroethenyl)-2,2-dimethylcyclopropanecarboxylate]: the “activity among the disclosed diastereomers” value in assay [11] is listed as “the more active of the disclosed diastereomers”.
